# Test results reported in PubChem BioAssay (NCI).
#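 All cell lines were grown in 96-well plates and treated with compound for 48 hours. At the GI50, growth is halved. TGI is the concentration that stops growth completely.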
# Assays:
# Experiment in all cases: NCI anticancer screen, dose series, 48 h
# SF-539 CNS = test system: SF-539 CNS
# MDA-MB-435 = test system: MDA-MB-435
# ACHN renal = test system: ACHN renal
# NCI/ADR-RES ovarian = test system: NCI/ADR-RES ovarian
# IGROV1 ovarian = test system: IGROV1 ovarian
# NCI-H522 lung = test system: NCI-H522 lung
# SK-MEL-5 melanoma = test system: SK-MEL-5 melanoma
# CCRF-CEM leukemia = test system: CCRF-CEM leukemia
# UO-31 renal = test system: UO-31 renal
# MDA-MB-231 breast = test system: MDA-MB-231 breast
# SR leukemia = test system: SR leukemia
# HT29 colon = test system: HT29 colon
# SK-MEL-2 melanoma = test system: SK-MEL-2 melanoma
# OVCAR-8 ovarian = test system: OVCAR-8 ovarian
# MOLT-4 leukemia = test system: MOLT-4 leukemia
# NCI-H460 lung = test system: NCI-H460 lung
# SF-295 CNS = test system: SF-295 CNS
# UACC-62 melanoma = test system: UACC-62 melanoma
# U251 CNS = test system: U251 CNS
# HL-60(TB) leukemia = test system: HL-60(TB) leukemia
# K-562 leukemia = test system: K-562 leukemia
# HCT-15 colon = test system: HCT-15 colon
# A498 renal = test system: A498 renal
# HOP-62 NSCLC = test system: HOP-62 NSCLC
# DU-145 prostate = test system: DU-145 prostate
# OVCAR-4 ovarian = test system: OVCAR-4 ovarian
# NCI-H226 lung = test system: NCI-H226 lung
# CAKI-1 renal = test system: CAKI-1 renal
# SF-268 CNS = test system: SF-268 CNS
# BT-549 breast = test system: BT-549 breast
# SNB-19 CNS = test system: SNB-19 CNS
# KM12 colon = test system: KM12 colon
# HCT-116 colon = test system: HCT-116 colon
# M14 melanoma = test system: M14 melanoma
# RXF 393 renal = test system: RXF 393 renal
# OVCAR-3 ovarian = test system: OVCAR-3 ovarian
# SNB-75 CNS = test system: SNB-75 CNS
# HCC-2998 colon = test system: HCC-2998 colon
# PC-3 prostate = test system: PC-3 prostate
# UACC-257 melanoma = test system: UACC-257 melanoma
# RPMI-8226 leukemia = test system: RPMI-8226 leukemia
# SN12C renal = test system: SN12C renal
# HS 578T breast = test system: HS 578T breast
# SW-620 colon = test system: SW-620 colon
# LOX IMVI melanoma = test system: LOX IMVI melanoma
# SK-MEL-28 melanoma = test system: SK-MEL-28 melanoma
# SK-OV-3 ovarian = test system: SK-OV-3 ovarian
# A549 NSCLC = test system: A549 NSCLC
# 786-0 renal = test system: 786-0 renal
# OVCAR-5 ovarian = test system: OVCAR-5 ovarian
# MCF7 breast = test system: MCF7 breast
smiles,measurement,setting,value
Fc1ccc(Nc2ccnc(N3CCN(c4ccnc5cc(Cl)ccc45)CC3)n2)cc1,GI50,SF-539 CNS,2.95 µM
same,TGI,SF-539 CNS,10.3 µM
same,GI50,MDA-MB-435,1.93 µM
same,TGI,MDA-MB-435,4.92 µM
same,GI50,ACHN renal,2.5 µM
same,TGI,ACHN renal,> 100 µM
same,GI50,NCI/ADR-RES ovarian,2.24 µM
same,TGI,NCI/ADR-RES ovarian,6.41 µM
same,GI50,IGROV1 ovarian,3.38 µM
same,TGI,IGROV1 ovarian,30.9 µM
same,GI50,NCI-H522 lung,2.03 µM
same,TGI,NCI-H522 lung,5.38 µM
same,GI50,SK-MEL-5 melanoma,1.53 µM
same,TGI,SK-MEL-5 melanoma,2.96 µM
same,GI50,CCRF-CEM leukemia,2.74 µM
same,TGI,CCRF-CEM leukemia,10.5 µM
same,GI50,UO-31 renal,0.845 µM
same,TGI,UO-31 renal,4.54 µM
same,GI50,MDA-MB-231 breast,1.51 µM
same,TGI,MDA-MB-231 breast,4.33 µM
same,GI50,SR leukemia,2.61 µM
same,TGI,SR leukemia,8.76 µM
same,GI50,HT29 colon,1.46 µM
same,TGI,HT29 colon,3.14 µM
same,GI50,SK-MEL-2 melanoma,2.16 µM
same,TGI,SK-MEL-2 melanoma,4.07 µM
same,GI50,OVCAR-8 ovarian,2.16 µM
same,TGI,OVCAR-8 ovarian,6.12 µM
same,GI50,MOLT-4 leukemia,2.76 µM
same,TGI,MOLT-4 leukemia,8.37 µM
same,GI50,NCI-H460 lung,1.74 µM
same,TGI,NCI-H460 lung,4.54 µM
same,GI50,SF-295 CNS,1.33 µM
same,TGI,SF-295 CNS,3.2 µM
same,GI50,UACC-62 melanoma,1.73 µM
same,TGI,UACC-62 melanoma,4.53 µM
same,GI50,U251 CNS,1.87 µM
same,TGI,U251 CNS,5.27 µM
same,GI50,HL-60(TB) leukemia,2.59 µM
same,TGI,HL-60(TB) leukemia,6.44 µM
same,GI50,K-562 leukemia,2.18 µM
same,TGI,K-562 leukemia,6.62 µM
same,GI50,HCT-15 colon,2.3 µM
same,TGI,HCT-15 colon,7.93 µM
same,GI50,A498 renal,1.81 µM
same,TGI,A498 renal,9.61 µM
same,GI50,HOP-62 NSCLC,3.83 µM
same,TGI,HOP-62 NSCLC,65.4 µM
same,GI50,DU-145 prostate,3.96 µM
same,TGI,DU-145 prostate,55.1 µM
same,GI50,OVCAR-4 ovarian,2.36 µM
same,TGI,OVCAR-4 ovarian,> 100 µM
same,GI50,NCI-H226 lung,2.52 µM
same,TGI,NCI-H226 lung,17.5 µM
same,GI50,CAKI-1 renal,1.83 µM
same,TGI,CAKI-1 renal,5.3 µM
same,GI50,SF-268 CNS,3.67 µM
same,TGI,SF-268 CNS,40.3 µM
same,GI50,BT-549 breast,2.95 µM
same,TGI,BT-549 breast,8.57 µM
same,GI50,SNB-19 CNS,3.99 µM
same,TGI,SNB-19 CNS,> 100 µM
same,GI50,KM12 colon,2.33 µM
same,TGI,KM12 colon,6.66 µM
same,GI50,HCT-116 colon,1.97 µM
same,TGI,HCT-116 colon,5.24 µM
same,GI50,M14 melanoma,1.89 µM
same,TGI,M14 melanoma,4.25 µM
same,GI50,RXF 393 renal,3.39 µM
same,TGI,RXF 393 renal,72.3 µM
same,GI50,OVCAR-3 ovarian,2.53 µM
same,TGI,OVCAR-3 ovarian,7.38 µM
same,GI50,SNB-75 CNS,2.43 µM
same,TGI,SNB-75 CNS,> 100 µM
same,GI50,HCC-2998 colon,3.4 µM
same,TGI,HCC-2998 colon,13.7 µM
same,GI50,PC-3 prostate,1.73 µM
same,TGI,PC-3 prostate,8.33 µM
same,GI50,UACC-257 melanoma,1.95 µM
same,TGI,UACC-257 melanoma,4.27 µM
same,GI50,RPMI-8226 leukemia,2.19 µM
same,TGI,RPMI-8226 leukemia,6.22 µM
same,GI50,SN12C renal,2.57 µM
same,TGI,SN12C renal,> 100 µM
same,GI50,HS 578T breast,2.83 µM
same,TGI,HS 578T breast,39 µM
same,GI50,SW-620 colon,2.92 µM
same,TGI,SW-620 colon,13.9 µM
same,GI50,LOX IMVI melanoma,1.82 µM
same,TGI,LOX IMVI melanoma,3.62 µM
same,GI50,SK-MEL-28 melanoma,3.27 µM
same,TGI,SK-MEL-28 melanoma,12.9 µM
same,GI50,SK-OV-3 ovarian,5.02 µM
same,TGI,SK-OV-3 ovarian,> 100 µM
same,GI50,A549 NSCLC,2.66 µM
same,TGI,A549 NSCLC,> 100 µM
same,GI50,786-0 renal,2.28 µM
same,TGI,786-0 renal,6.26 µM
same,GI50,OVCAR-5 ovarian,3.82 µM
same,TGI,OVCAR-5 ovarian,> 100 µM
same,GI50,MCF7 breast,2.36 µM
same,TGI,MCF7 breast,8.26 µM
